Laboratory results from patent US9241952B2, “Method of treating type II diabetes, hyperglycemia or hypoglycemia by administering a synergistic combination of a sulphonylurea and inulin” (OZSTAR THERAPEUTICS PTY LTD, priority 2010, dated 2016).

What was measured:
Format in all cases: in vivo, human
[1] = FBG, HA1c and lipid profiles by independent pathology laboratory, Example 1 patient (Table 2); details: Nov. 5, 2006; prior to inulin
Text: (§1) Other similar devices can also be used.

[2] = Fasting blood glucose (FBG), Accu-Chek, T2DM patient on Glibenclamide with inulin (Examples 1 and 3)
Procedure: as §1
The efficacy of inulin on Glibenclamide therapy was investigated. Several years prior to inulin combination therapy, patient's FBG fluctuated drastically and was uncontrolled around 10 mmol/L. Their cholesterol and triglyceride were also very high (Table 2). FIG. 1 depicts the monthly FBG average at indicated time points. Conditions of treatments are described below: • January 2007: Patient's endocrinologist increased the Glibenclamide dose from 2×5 mg to 3×5 mg per day. […] For the first time they were diagnosed with Atrial fibrillation and prescribed with Warfarin. […] Low FBG assisted in excellent recovery. • March 2009: Inulin supply became unavailable.
The patient, as described above in Example 1, was switched over to inulin (Orafti), and combination therapy with Glibenclaminde (5 mg, three times daily) continued following a similar protocol as described above except that the patient received 15 gr/day of inulin (Orafti).

[3] = FBG, T2DM patient on Gliclazide with inulin (Example 2)
Procedure: as §1
Another patient, who was under Gliclazide therapy (30 mg, once daily) for nearly a decade with uncontrolled blood glucose levels above 9 mmol/L, also began the combination therapy with inulin (JLS). Various blood parameter measurements were as described in Example 1.

## COc1ccc(Cl)cc1C(=O)NCCc1ccc(S(=O)(=O)NC(=O)NC2CCCCC2)cc1 [Glibenclamide]
[1]
  Cholesterol: 6.2 mmol/L
  Fasting Glucose: 10 mmol/L
  Triglyceride: 4 mmol/L
[2]; February 2007, Glibenclamide 3×5 mg per day
  average FBG: 6 mmol/L
[2]; January 2007, Glibenclamide 2×5 mg per day
  average FBG: 7.8 mmol/L
[2]; by October 2009, inulin unavailable from March 2009
  FBG: ~7.5 mmol/L
[2]; several years prior to inulin combination therapy, uncontrolled
  FBG: around 10 mmol/L

## Cc1ccc(S(=O)(=O)NC(=O)NN2CC3CCCC3C2)cc1 (stereo not drawn) [Gliclazide]
[3]; Gliclazide 30 mg once daily for nearly a decade, uncontrolled
  blood glucose levels: above 9 mmol/L
[3]; Gliclazide 30 mg once daily, before inulin, ± SEM
  FBG level: 9.4 ± 1.82 mmol/L
